Test results taken from patent US8952024B2, “Herbicidal pyrimidone derivatives” (E I du Pont de Nemours and Company, priority 2009, dated 2015).

Experiments:
Type in all cases: in vivo
[1] = test system: velvetleaf (Abutilon theophrasti); experiment: Test A pre-/postemergence plant response; conditions: for Velvetleaf plant response rating: visual injury, 0 to 100 scale (0 no effect, 100 complete control), approx. ten days
Summary of the method: (§1)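 Each species was treated preemergence via directed soil spray and postemergence at the one- to two-leaf stage, with compounds formulated in a non-phytotoxic solvent plus surfactant. Visual injury relative to untreated controls was rated after about ten days on a 0–100 scale.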

[2] = test system: large crabgrass (Digitaria sanguinalis); experiment: Test A pre-/postemergence plant response; conditions: for Crabgrass, Large plant response rating: visual injury, 0 to 100 scale (0 no effect, 100 complete control), approx. ten days
Summary of the method: as §1

[3] = test system: wheat (Triticum aestivum); experiment: Test A pre-/postemergence plant response; conditions: for Wheat plant response rating: visual injury, 0 to 100 scale (0 no effect, 100 complete control), approx. ten days
Summary of the method: as §1

[4] = test system: barnyardgrass (Echinochloa crus-galli); experiment: Test A pre-/postemergence plant response; conditions: for Barnyardgrass plant response rating: visual injury, 0 to 100 scale (0 no effect, 100 complete control), approx. ten days
Summary of the method: as §1

[5] = test system: morningglory (Ipomoea spp.); experiment: Test A pre-/postemergence plant response; conditions: for Morningglory plant response rating: visual injury, 0 to 100 scale (0 no effect, 100 complete control), approx. ten days
Summary of the method: as §1

[6] = test system: corn (Zea mays); experiment: Test A pre-/postemergence plant response; conditions: for Corn plant response rating: visual injury, 0 to 100 scale (0 no effect, 100 complete control), approx. ten days
Summary of the method: as §1

[7] = test system: giant foxtail (Setaria faberii); experiment: Test A pre-/postemergence plant response; conditions: for Foxtail, Giant plant response rating: visual injury, 0 to 100 scale (0 no effect, 100 complete control), approx. ten days
Summary of the method: as §1

[8] = test system: pigweed (Amaranthus retroflexus); experiment: Test A pre-/postemergence plant response; conditions: for Pigweed plant response rating: visual injury, 0 to 100 scale (0 no effect, 100 complete control), approx. ten days
Summary of the method: as §1

[9] = test system: winter barley (Hordeum vulgare); experiment: Test B postemergence plant response; conditions: for Barley plant response rating (0 to 100 scale): 62 g ai/ha, postemergence, 0 is no effect, 100 is complete control; for Plant response rating, Barley: Postemergence
Summary of the method: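 Visual ratings from 0 (no effect) to 100 (complete control), made against controls 13–15 days after treatment, kept in a greenhouse. Compounds were applied postemergence to potted plants at the 1- to 4-leaf stage (2–18 cm).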

[10] = test system: ducksalad (Heteranthera limosa); experiment: Test B flooded paddy test; conditions: for Plant response rating, Flood, Ducksalad: 250 g ai/ha, flooded paddy test, visual rating on 0 to 100 scale (0 no effect, 100 complete control) after 13 to 15 days; for Plant response rating, Ducksalad: Flood (flooded paddy test), 62 g ai/ha, scale of 0 to 100 where 0 is no effect and 100 is complete control, 13 to 15 days
Summary of the method: (§2)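 Plants were grown to the 2-leaf stage, then pots were flooded to 3 cm above the soil and compounds were applied directly into the paddy water. That depth was held throughout. After 13 to 15 days in a greenhouse, injury was visually rated against controls on a 0–100 scale.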

[11] = test system: umbrella sedge (Cyperus difformis); experiment: Test B flooded paddy test; conditions: for Plant response rating, Flood, Sedge, Umbrella: 250 g ai/ha, flooded paddy test, visual rating on 0 to 100 scale (0 no effect, 100 complete control) after 13 to 15 days; for Plant response rating, Sedge, Umbrella: Flood (flooded paddy test), 62 g ai/ha, scale of 0 to 100 where 0 is no effect and 100 is complete control, 13 to 15 days
Summary of the method: as §2

[12] = test system: barnyardgrass (Echinochloa crus-galli); experiment: Test B flooded paddy test; conditions: for Plant response rating, Flood, Barnyardgrass: 250 g ai/ha, flooded paddy test, visual rating on 0 to 100 scale (0 no effect, 100 complete control) after 13 to 15 days; for Plant response rating, Barnyardgrass: Flood (flooded paddy test), 62 g ai/ha, scale of 0 to 100 where 0 is no effect and 100 is complete control, 13 to 15 days
Summary of the method: as §2

[13] = test system: rice (Oryza sativa); experiment: Test B flooded paddy test; conditions: for Plant response rating, Flood, Rice: 250 g ai/ha, flooded paddy test, visual rating on 0 to 100 scale (0 no effect, 100 complete control) after 13 to 15 days; for Plant response rating, Rice: Flood (flooded paddy test), 62 g ai/ha, scale of 0 to 100 where 0 is no effect and 100 is complete control, 13 to 15 days
Summary of the method: as §2

[14] = Postemergence, 125 g ai/ha, 0 to 100 scale where 0 is no effect and 100 is complete control
[15] = Preemergence, 125 g ai/ha, 0 to 100 scale, 0 = no effect, 100 = complete control
[16] = Preemergence, 500 g ai/ha, 0 to 100 scale, 0 = no effect, 100 = complete control
[17] = 31 g ai/ha, 0 to 100 scale (0 no effect, 100 complete control)
[18] = 125 g ai/ha, scale 0 to 100 (0 no effect, 100 complete control)
[19] = 250 g ai/ha, scale 0 to 100 (0 no effect, 100 complete control), 13 to 15 days

O=C1CCCC(O)=C1C(=O)c1cnc(-c2cccc(F)c2)n(C2CCCCC2)c1=O [Compound 187]
Plant response rating, Velvetleaf [1, 14]: 100 | Velvetleaf plant response rating ([1]; Postemergence, 500 g ai/ha): 100 | Plant response rating, Velvetleaf [1, 15]: 70 | Plant response rating, Velvetleaf [1, 16]: 100 | Plant response rating, Crabgrass, Large [2, 14]: 90 | Crabgrass, Large plant response rating ([2]; Postemergence, 500 g ai/ha): 100 | Plant response rating, Crabgrass, Large [2, 15]: 30 | Plant response rating, Crabgrass, Large [2, 16]: 90 | Plant response rating, Wheat [3, 14]: 0 | Wheat plant response rating ([3]; Postemergence, 500 g ai/ha): 0 | Plant response rating, Wheat [3, 15]: 0 | Plant response rating, Wheat [3, 16]: 0 | Plant response rating, Barnyardgrass [4, 14]: 90 | Barnyardgrass plant response rating ([4]; Postemergence, 500 g ai/ha): 100 | Plant response rating, Barnyardgrass [4, 15]: 20 | Plant response rating, Barnyardgrass [4, 16]: 90 | Plant response rating, Morningglory [5, 14]: 100 | Morningglory plant response rating ([5]; Postemergence, 500 g ai/ha): 100 | Plant response rating, Morningglory [5, 15]: 80 | Plant response rating, Morningglory [5, 16]: 90 | Plant response rating, Corn [6, 14]: 0 | Corn plant response rating ([6]; Postemergence, 500 g ai/ha): 50 | Plant response rating, Corn [6, 15]: 0 | Plant response rating, Corn [6, 16]: 0 | Plant response rating, Foxtail, Giant [7, 14]: 80 | Foxtail, Giant plant response rating ([7]; Postemergence, 500 g ai/ha): 90 | Plant response rating, Foxtail, Giant [7, 15]: 30 | Plant response rating, Foxtail, Giant [7, 16]: 90 | Plant response rating, Pigweed [8, 14]: 100 | Pigweed plant response rating ([8]; Postemergence, 500 g ai/ha): 100 | Plant response rating, Pigweed [8, 15]: 60 | Plant response rating, Pigweed [8, 16]: 70 | Barley plant response rating (0 to 100 scale) ([9]; 13 to 15 days): 5 | Plant response rating, Barley [9, 17]: 0 | Plant response rating, Barley [9, 18]: 40 | Plant response rating, Barley [9, 19]: 40 | Plant response rating, Flood, Ducksalad [10]: 100 | Plant response rating, Ducksalad [10]: 95 | Plant response rating, Flood, Sedge, Umbrella [11]: 100 | Plant response rating, Sedge, Umbrella [11]: 95 | Plant response rating, Flood, Barnyardgrass [12]: 80 | Plant response rating, Barnyardgrass [12]: 45 | Plant response rating, Flood, Rice [13]: 70 | Plant response rating, Rice [13]: 15

O=C1CCCC(O)=C1C(=O)c1cnc(-c2cccs2)n(C2CCCCC2)c1=O [Compound 189]
Plant response rating, Velvetleaf [1, 14]: 100 | Velvetleaf plant response rating ([1]; Postemergence, 500 g ai/ha): 100 | Plant response rating, Velvetleaf [1, 15]: 70 | Plant response rating, Velvetleaf [1, 16]: 100 | Plant response rating, Crabgrass, Large [2, 14]: 90 | Crabgrass, Large plant response rating ([2]; Postemergence, 500 g ai/ha): 90 | Plant response rating, Crabgrass, Large [2, 15]: 30 | Plant response rating, Crabgrass, Large [2, 16]: 80 | Plant response rating, Wheat [3, 14]: 0 | Wheat plant response rating ([3]; Postemergence, 500 g ai/ha): 0 | Plant response rating, Wheat [3, 15]: 0 | Plant response rating, Wheat [3, 16]: 0 | Plant response rating, Barnyardgrass [4, 14]: 90 | Barnyardgrass plant response rating ([4]; Postemergence, 500 g ai/ha): 90 | Plant response rating, Barnyardgrass [4, 15]: 20 | Plant response rating, Barnyardgrass [4, 16]: 90 | Plant response rating, Morningglory [5, 14]: 100 | Morningglory plant response rating ([5]; Postemergence, 500 g ai/ha): 100 | Plant response rating, Morningglory [5, 16]: 80 | Plant response rating, Corn [6, 14]: 10 | Corn plant response rating ([6]; Postemergence, 500 g ai/ha): 40 | Plant response rating, Corn [6, 15]: 0 | Plant response rating, Corn [6, 16]: 0 | Plant response rating, Foxtail, Giant [7, 14]: 80 | Foxtail, Giant plant response rating ([7]; Postemergence, 500 g ai/ha): 90 | Plant response rating, Foxtail, Giant [7, 15]: 30 | Plant response rating, Foxtail, Giant [7, 16]: 60 | Plant response rating, Pigweed [8, 14]: 100 | Pigweed plant response rating ([8]; Postemergence, 500 g ai/ha): 100 | Plant response rating, Pigweed [8, 15]: 70 | Plant response rating, Pigweed [8, 16]: 100 | Barley plant response rating (0 to 100 scale) ([9]; 13 to 15 days): 5 | Plant response rating, Barley [9, 17]: 0 | Plant response rating, Barley [9, 18]: 15 | Plant response rating, Barley [9, 19]: 40 | Plant response rating, Flood, Ducksalad [10]: 100 | Plant response rating, Ducksalad [10]: 100 | Plant response rating, Flood, Sedge, Umbrella [11]: 100 | Plant response rating, Sedge, Umbrella [11]: 95 | Plant response rating, Flood, Barnyardgrass [12]: 70 | Plant response rating, Barnyardgrass [12]: 30 | Plant response rating, Flood, Rice [13]: 60 | Plant response rating, Rice [13]: 20
